Data taken from patent EP1976513B1 (priority 2006, dated 2007).
Where a name gives a salt, the structure may show the parent alone. Read-outs that look alike come from different tables or passages of the source.

How the values were obtained:
serotonin transporter = target: T1, serotonin transporter (Rattus norvegicus, UniProt P31652); assay: biochemical; details: rat synaptosomes, serotonin transporter (SERT)
T1 construct: synaptosomes isolated in a 0.32M sucrose buffer from a male Wistar rat cortex; from tissue; host or cells: male Wistar rat cortex synaptosomes
T1 sequence (P31652 whole entry): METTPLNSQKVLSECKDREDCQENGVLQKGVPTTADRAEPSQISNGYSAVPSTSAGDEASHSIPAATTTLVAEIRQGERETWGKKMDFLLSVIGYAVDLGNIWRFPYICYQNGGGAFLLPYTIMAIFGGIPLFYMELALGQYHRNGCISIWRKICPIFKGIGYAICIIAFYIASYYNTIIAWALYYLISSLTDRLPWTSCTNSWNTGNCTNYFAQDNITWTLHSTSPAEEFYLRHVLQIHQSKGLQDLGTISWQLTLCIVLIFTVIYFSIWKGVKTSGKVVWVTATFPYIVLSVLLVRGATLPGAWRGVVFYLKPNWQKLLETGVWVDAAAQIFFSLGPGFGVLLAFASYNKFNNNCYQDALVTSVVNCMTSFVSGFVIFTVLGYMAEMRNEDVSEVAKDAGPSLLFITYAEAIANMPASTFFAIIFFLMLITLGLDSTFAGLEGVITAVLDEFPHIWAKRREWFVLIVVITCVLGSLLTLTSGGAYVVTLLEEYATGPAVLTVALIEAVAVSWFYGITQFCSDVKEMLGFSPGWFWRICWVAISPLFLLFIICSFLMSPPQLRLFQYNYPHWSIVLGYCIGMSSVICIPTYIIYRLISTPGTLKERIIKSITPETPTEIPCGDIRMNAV

[1] = target: T2, norepinephrine transporter (Rattus norvegicus, UniProt Q63380); assay: biochemical; type: biochemical; details: rat synaptosomes, norepinephrine transporter (NET)
T2 construct: synaptosomes isolated in a 0.32 M sucrose buffer from a male Wistar rat hypothalamus; from tissue; host or cells: male Wistar rat hypothalamus synaptosomes
T2 sequence (Q63380 1-617): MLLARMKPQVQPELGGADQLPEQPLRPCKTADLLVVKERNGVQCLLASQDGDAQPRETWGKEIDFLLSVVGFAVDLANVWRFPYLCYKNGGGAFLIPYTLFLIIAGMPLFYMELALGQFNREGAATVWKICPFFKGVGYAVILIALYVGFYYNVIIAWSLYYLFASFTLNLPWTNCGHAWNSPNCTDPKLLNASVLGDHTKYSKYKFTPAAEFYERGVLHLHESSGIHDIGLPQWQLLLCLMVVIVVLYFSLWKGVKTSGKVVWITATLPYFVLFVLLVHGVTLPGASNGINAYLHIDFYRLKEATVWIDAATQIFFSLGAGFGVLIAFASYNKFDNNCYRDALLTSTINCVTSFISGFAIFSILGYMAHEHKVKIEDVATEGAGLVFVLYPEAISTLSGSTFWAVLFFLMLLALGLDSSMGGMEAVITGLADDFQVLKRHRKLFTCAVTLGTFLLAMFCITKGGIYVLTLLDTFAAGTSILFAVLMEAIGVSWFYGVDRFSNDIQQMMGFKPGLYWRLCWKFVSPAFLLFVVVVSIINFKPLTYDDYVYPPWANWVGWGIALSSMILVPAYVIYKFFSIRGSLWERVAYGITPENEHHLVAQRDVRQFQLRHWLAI

dopamine transporter = target: T3, dopamine transporter (Rattus norvegicus, UniProt P23977); assay: biochemical; details: rat synaptosomes, dopamine transporter (DAT)
T3 construct: synaptosomes isolated in a 0.32 M sucrose buffer from a male Wistar rat striatum; from tissue; host or cells: male Wistar rat striatum synaptosomes
T3 sequence (P23977 whole entry): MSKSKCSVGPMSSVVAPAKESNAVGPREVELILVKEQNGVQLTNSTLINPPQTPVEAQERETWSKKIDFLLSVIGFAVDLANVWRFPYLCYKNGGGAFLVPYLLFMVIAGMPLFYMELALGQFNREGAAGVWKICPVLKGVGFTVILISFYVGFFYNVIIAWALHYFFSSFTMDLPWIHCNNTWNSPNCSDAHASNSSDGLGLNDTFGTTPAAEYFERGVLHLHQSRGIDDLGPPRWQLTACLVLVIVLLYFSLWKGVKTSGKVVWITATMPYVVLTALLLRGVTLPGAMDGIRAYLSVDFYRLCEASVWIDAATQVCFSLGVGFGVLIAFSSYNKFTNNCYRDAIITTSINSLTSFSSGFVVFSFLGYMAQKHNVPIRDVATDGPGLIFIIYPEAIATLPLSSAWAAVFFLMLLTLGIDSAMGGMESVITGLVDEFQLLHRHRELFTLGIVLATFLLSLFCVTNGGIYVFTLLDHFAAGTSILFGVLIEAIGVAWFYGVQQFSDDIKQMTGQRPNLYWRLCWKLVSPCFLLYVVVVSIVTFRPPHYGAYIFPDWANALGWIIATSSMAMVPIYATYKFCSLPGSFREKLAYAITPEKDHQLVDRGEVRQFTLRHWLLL

[2] = target: human serotonin reuptake transporter (Homo sapiens, UniProt P31645); assay: cell-based; details: recombinant human serotonin transporter (SERT)
Chain of human serotonin reuptake transporter (P31645 whole entry): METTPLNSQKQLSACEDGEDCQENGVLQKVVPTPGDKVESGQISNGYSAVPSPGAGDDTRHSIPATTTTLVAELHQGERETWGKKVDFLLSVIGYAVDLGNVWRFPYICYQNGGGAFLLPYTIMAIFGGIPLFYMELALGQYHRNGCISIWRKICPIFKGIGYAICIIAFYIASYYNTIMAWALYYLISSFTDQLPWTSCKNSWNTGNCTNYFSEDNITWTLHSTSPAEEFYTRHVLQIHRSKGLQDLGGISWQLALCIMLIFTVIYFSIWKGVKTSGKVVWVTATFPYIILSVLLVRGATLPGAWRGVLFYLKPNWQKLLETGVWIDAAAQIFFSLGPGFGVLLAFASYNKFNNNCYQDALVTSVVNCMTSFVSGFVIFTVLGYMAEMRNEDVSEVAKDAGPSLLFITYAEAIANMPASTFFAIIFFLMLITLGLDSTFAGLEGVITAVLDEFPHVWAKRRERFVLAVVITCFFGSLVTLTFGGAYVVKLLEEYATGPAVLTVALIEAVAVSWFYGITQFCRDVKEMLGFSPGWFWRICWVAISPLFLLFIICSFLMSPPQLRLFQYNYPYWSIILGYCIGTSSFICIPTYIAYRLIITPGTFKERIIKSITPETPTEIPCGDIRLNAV

[3] = target: T4, human dopamine reuptake transporter (Homo sapiens, UniProt Q01959); assay: cell-based; details: recombinant human dopamine transporter (DAT); read-out: Human IC50 (nM) hDAT
T4 construct: expressed in transfected cells; host or cells: CHO-K1 or HEK293
T4 sequence (Q01959 whole entry): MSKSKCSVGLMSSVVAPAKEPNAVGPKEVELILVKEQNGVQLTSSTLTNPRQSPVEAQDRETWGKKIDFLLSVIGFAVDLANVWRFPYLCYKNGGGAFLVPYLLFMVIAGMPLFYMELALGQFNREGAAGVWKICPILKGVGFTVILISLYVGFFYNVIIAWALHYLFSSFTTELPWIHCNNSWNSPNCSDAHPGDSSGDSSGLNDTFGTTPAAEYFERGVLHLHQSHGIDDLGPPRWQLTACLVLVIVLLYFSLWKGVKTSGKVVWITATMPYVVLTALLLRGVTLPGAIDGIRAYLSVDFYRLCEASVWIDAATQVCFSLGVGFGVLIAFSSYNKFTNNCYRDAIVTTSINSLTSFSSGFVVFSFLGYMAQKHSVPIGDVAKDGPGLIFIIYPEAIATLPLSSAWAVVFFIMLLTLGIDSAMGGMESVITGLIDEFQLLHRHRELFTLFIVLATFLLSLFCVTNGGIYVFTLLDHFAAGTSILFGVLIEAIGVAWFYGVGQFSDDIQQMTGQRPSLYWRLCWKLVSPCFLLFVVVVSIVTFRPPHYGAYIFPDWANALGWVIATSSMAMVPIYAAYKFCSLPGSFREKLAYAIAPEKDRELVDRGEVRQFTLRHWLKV

[4] = target: human norepinephrine reuptake transporter (Homo sapiens, UniProt P23975); assay: cell-based; details: recombinant human norepinephrine transporter (NET); read-out: Human IC50 (nM) hNET
Chain of human norepinephrine reuptake transporter (P23975 whole entry): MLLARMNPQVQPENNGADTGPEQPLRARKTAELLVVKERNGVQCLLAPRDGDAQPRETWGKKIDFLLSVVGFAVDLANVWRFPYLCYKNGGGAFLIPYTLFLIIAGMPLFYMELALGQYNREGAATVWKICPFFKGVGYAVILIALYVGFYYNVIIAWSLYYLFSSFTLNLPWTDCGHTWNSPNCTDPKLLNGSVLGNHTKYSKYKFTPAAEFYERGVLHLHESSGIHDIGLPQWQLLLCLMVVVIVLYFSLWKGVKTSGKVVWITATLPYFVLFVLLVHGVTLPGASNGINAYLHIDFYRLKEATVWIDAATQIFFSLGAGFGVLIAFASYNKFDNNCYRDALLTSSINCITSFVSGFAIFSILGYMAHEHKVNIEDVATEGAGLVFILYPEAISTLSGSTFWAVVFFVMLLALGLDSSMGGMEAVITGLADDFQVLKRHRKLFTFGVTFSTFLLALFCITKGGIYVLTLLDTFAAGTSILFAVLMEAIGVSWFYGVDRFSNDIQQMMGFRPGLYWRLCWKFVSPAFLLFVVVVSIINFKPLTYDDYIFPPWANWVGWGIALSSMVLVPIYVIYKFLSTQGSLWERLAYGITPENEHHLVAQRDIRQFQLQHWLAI

[5] = read-out: Human IC50 (nM) hSERT

SMILES | IC50 [3] [nM] | IC50 [4] [nM] | IC50 [2, 5] [nM] | also measured
CNC[C@]1(c2ccc3ccccc3c2)CCCC[C@@H]1O (single isomer, unassigned) [147 E2] |  |  |  | IC50 (serotonin transporter; read-out: Rat IC50 (nM) rSERT): 1700 nM; IC50 ([1]; read-out: Rat IC50 (nM) rNET): 1200 nM; IC50 (dopamine transporter; read-out: Rat IC50 (nM) rDAT): 1500 nM
NCC1(c2ccc(OC(F)(F)F)cc2)CCCCC1 [Compound 15, (1-(4-(trifluoromethoxy)phenyl)cyclohexyl)methanamine] | > 10000 | > 10000 |  | IC50 ([2]; Human IC50 (nM) hSERT): 1400 nM
CNCC1(c2ccccc2)CCCCC1 [Compound 80, N-methyl(1-phenylcyclohexyl)methanamine (hydrochloride)] | > 10000 | > 10000 | 9170 | 
CN(C)CC1(c2ccc(Cl)c(Cl)c2)CCC(F)(F)CC1 [Compound 269, 1-(1-(3,4-dichlorophenyl)-4,4-difluorocyclohexyl)-N,N-dimethylmethanamine] | < 1 | 36 | 787 | 
NCC1(c2ccc(F)c(F)c2)CCCCC1 [Compound 30, (1-(3,4-difluorophenyl)cyclohexyl)methanamine hydrochloride] | 5870 | > 10000 | 4520 | 
NCC1(c2ccc(Cl)cc2Cl)CCCCC1 [Compound 38, (1-(2,4-dichlorophenyl)cyclohexyl)methanamine] | 9650 | > 10000 |  | IC50 ([2]; Human IC50 (nM) hSERT): 472 nM
CNCC1(c2ccc(OC(F)(F)F)cc2)CCC(O)CC1 (stereo not drawn) [Compound 249, 4-((methylamino)methyl)-4-(4-(trifluoromethoxy)phenyl)cyclohexanol] | > 10000 | > 10000 | 405 | 
CNC[C@@]1(c2ccc3ccccc3c2)CCCC[C@H]1O (single isomer, unassigned) [147 E1] |  |  |  | IC50 (serotonin transporter; read-out: Rat IC50 (nM) rSERT): 18 nM; IC50 ([1]; read-out: Rat IC50 (nM) rNET): 370 nM; IC50 (dopamine transporter; read-out: Rat IC50 (nM) rDAT): 1200 nM
CNC[C@@]1(c2ccc3ccccc3c2)CCCC[C@@H]1O (single isomer, unassigned) [148 E2] |  |  |  | IC50 (serotonin transporter; read-out: Rat IC50 (nM) rSERT): 330 nM; IC50 ([1]; read-out: Rat IC50 (nM) rNET): 4900 nM; IC50 (dopamine transporter; read-out: Rat IC50 (nM) rDAT): 680 nM
CC1(O)CCC(CN)(c2ccc3ccccc3c2)CC1 (stereo not drawn) [Compound 209, 4-(aminomethyl)-1-methyl-4-(naphthalen-2-yl)cyclohexanol] | 4760 | > 10000 | 1160 | 
NCC1(c2ccccc2)CCCCC1 [Compound 31, (1-phenylcyclohexyl)methaneamine hydrochloride] | > 10000 | > 10000 | > 10000 | 
CC(N(C)C)C1(c2ccc3ccccc3c2)CCCCC1 (single isomer, unassigned) [56 E2, N,N-dimethyl-1-(1-(naphthalen-2-yl)cyclohexyl)ethanamine] |  |  |  | IC50 (serotonin transporter; Rat IC50 (nM) rSERT): 120 nM; IC50 ([1]; Rat IC50 (nM) rNET): 79 nM; IC50 (dopamine transporter; Rat IC50 (nM) rDAT): 100 nM
CNCC1(c2ccc3c(c2)OCO3)CCC(O)CC1 (stereo not drawn) [Compound 237, 4-(benzo[d][1,3]dioxol-5-yl)-4-((methylamino)methyl)cyclohexanol] | 9130 | > 10000 | 7300 | 
